{"source": "patent US10842767B2", "about": "“Use of ketone esters for prevention of CNS oxygen toxicity” (University of South Florida, priority 2011, dated 2020)", "key": {"[1]": {"conditions": "for blood pH after administration (FIG. 20): from 7.45"}, "[2]": {"experiment": "Blood ketones (BHB, AcAc, acetone) and glucose after oral gavage", "assay_type": "in vivo, rat", "conditions": "for blood BHB level versus control (words) / effect on blood glucose / blood AcAc / acetone level: ~10 g/kg gavage; for effect on blood glucose: over 4 hrs, relative to control (water); for blood AcAc / acetone level: acetone at 60 min; for duration of elevation of blood ketones: single oral/intragastric administration", "protocol": "To determine the time course of ketosis, 18 adult male Sprague-Dawley rats (250-350 grams), pathogen-free, were purchased from a vendor (Harlan) and shipped 7 days after being implanted with carotid catheters. The rats were food (not water) deprived for 18 hours prior to the start of the experiment. […] Whole blood samples (10 μl) were acquired for analysis of glucose and BHB at USF utilizing a commercially available glucose/ketone monitoring system (Nova Max® Plus) at time 0, 30, 60, 120, 180 and 240 min. In addition, heparinized blood samples (200 μl) were collected into Eppendorf tubes at time 0, 30, 60, 120, 180 and 240 min. Samples were processed for the detection and quantification of BHB, AcAc, and acetone at Case Western Reserve University, Mouse Metabolic Phenotyping Center (MMPC). Briefly, samples were chilled on ice for 30 s, centrifuged in a micro-centrifuge (13,000 G) for 3-5 min and plasma (>100 μl), treated with reducing reagent of cold 0.2M sodium borodeuteride (NaBD4; Sigma, 205591, CAS 15681-89-7) dissolved in 0.1M NaOH (8.4 mg NaBD4 in 1 ml of 0.1M NaOH) and then immediately frozen on dry ice before storing at −80° C. Acetone was analyzed at the 60 minute time point, which was the predicted peak of blood AcAc levels (Desrochers et al. 1995). 300 μl of whole blood were collected in addition to the above collections, stabilized with cold 0.2M NaBD4, and then immediately frozen on dry ice. Samples were stored at −80° C. until analyzed for ketones. Internal standards of [^2H6]BHB or [^2H8]isopropanol were added to the treated plasma or blood samples (50 μl or 15 μl) and the BHB, AcAc (as M+1 of BHB) or acetone (as 2-propanol) metabolites were analyzed by gas chromatography-mass spectrometry (GC-MS) using an Agilent 5973 mass spectrometer, linked to a 6890 gas chromatograph equipped with an autosampler. Briefly, GC-MS conditions were either EI or CI mode (electron or chemical ionization mode); the samples were detected by selected ion monitoring as the BHB- and AcAc-trimethylsilyl derivatives (EI) or the derivative of acetone-pentafluorobenzoyl (CI). […]\nKetone measurements were taken at 30, 60, 120, 180 and 240 minutes. Blood plasma was treated with sodium borodeuteride (NaB2H4) to stabilize ketone concentration and then assayed by GC-MS. The rapid rise relating to blood ketones from BD-AcAc2 is due primarily from rapid desterfication in blood and tissues."}, "[3]": {"system": "rats exposed to 5 ATA O2 (CNS oxygen toxicity seizures)", "experiment": "Latency to seizure (CNS-OT) in rats breathing hyperbaric oxygen at 5 ATA, radio-telemetry EEG", "assay_type": "in vivo, rat", "conditions": "for increase in latency to seizure (LS) compared to control (water): rats, 5 ATA O2, ~10 g/kg (3 ml) gavage 30 min before dive", "source_text": "All animal procedures were done in accordance with the University of South Florida Institutional Animal Care and Use Committee (IACUC) guidelines. Adult male Sprague-Dawley rats (n=60), 250-300 grams, were obtained from Harlan, anesthetized in 3-5% isoflurane (in O2) and implanted with a 4ET radio-transmitter (Data Sciences International, DSI) using sterile surgical technique. One pair of leads (positive and negative poles) was implanted in the costal diaphragm at the junction with the abdominal wall for diaphragmatic electromyogram (dEMG) signals, one pair of electrodes was inserted in the pectoral muscle to acquire electrocardiogram (ECG) data, and two pairs of wires were embedded in the skull between Bregma and Lambda, with one lead on either side of midline for each pair (EEG recordings). The EMG wires were not inserted into crural diaphragmatic muscle because of the high risk of pneumothorax due to the thinness of the muscle (419 to 630 μm). 4ET radio-transmitters also monitored core body temperature and physical activity. Rats were weighed immediately before surgery and subsequently once every 7 days, just prior to the weekly exposures to HBO2. After surgery, every animal recovered for ≥1 week.\nThe radiotelemetry system consisted of an implantable 4ET radio-transmitter able to amplify and broadcast signals via a receiver (DSI PhysioTel, model RPC-2) connected to an acquisition interface unit (ACQ 7700 Ponemah) via electrical penetrations in the wall of the hyperbaric chamber. The acquisition interface unit was connected to a computer for real time data collection and storage. The same acquisition unit also recorded chamber pressure and temperature, which were measured, respectively, […] directly connected to the acquisition system via BNC (Bayonet Neill-Concelman) cables. Each animal was continuously monitored via a video camera (AXIS 221 Network Camera) and the video of each experiment was recorded as well.\nThe hyperbaric system consisted of two main elements: 1) a plexiglass chamber (˜3 liter capacity, Diamond Box, Buxco, Electronics Inc., model PLY3114), that housed the rat during the experiment, and 2) a hyperbaric chamber (Reimers System Inc.—7.8 ATA MWP), that contained the plexiglass chamber and functioned as the pressure vessel. Both chambers were connected to an air compressor (oil-less rotary scroll compressor—model DK6086, Powerex).\nDuring each experiment (hyperbaric hyperoxia), both the main chamber and the animal chamber were filled with air. Rats were placed into the plexiglass chamber and allowed ten minutes to acclimate, at which time the plexiglass chamber was flushed with 100% O2. The animal was then allowed 15 minutes to acclimate before both chambers were compressed to 5 ATA (58.8 PSIG) at a rate of 0.7 ATA/min. […] Each experiment was visually monitored via a live camera. LS was calculated from the moment at which the internal and the external chambers reached 5 ATA until the onset of convulsions, identified as high-amplitude, high frequency spikes lasting 10 to 30 sec, followed by polyspikes and wave formation concurrent with tonic-clonic motions of forelimbs and head. […]\nThe details of this example are explained in the Materials and Methods section above. Briefly, the effects of ketone esters (KEs) in preventing CNS-OT in rats were assessed before, during and after HBO2 exposure by measuring various parameters. […]"}, "[4]": {"system": "primary cultures of rat cortical neurons", "experiment": "Superoxide anion production (DHE fluorescence) in primary cortex neurons exposed to HBO2 or amyloid beta", "assay_type": "cell-based", "conditions": "60 min 5 ATA O2, NBO and HBO", "protocol": "Primary dissociated neuronal cultures of the hippocampus and cortex are acquired from Brain Bits LLC, to increase time efficiency and to minimize cost associated with purchasing rats. Hippocampal or cortical tissue from Brain Bits (shipped in Hibernate®) are enzymatically and mechanically dissociated via pipette trituration. Neurons are plated on 12 mm glass coverslips and allowed to adhere for 1-2 hrs in an incubator maintained at 9-20% O2 in a humidified atmosphere. Cultures are maintained in media purchased from Brain Bits, including NbActiv1® and NbActive4. […] Fluorescent probes (for use with fluorescence and confocal microscopy)\nList of fluorescence probes that will be purchased from Invitrogen: • Dihydroethidium, DHE (1-10 μM; Exλ 525, Emλ 590) detects intracellular ·O2^− generation (Bindokas et al. 1996; D'Agostino et al. 2007). • Calcein-AM (4 μM; Exλ 490, Emλ 535) detects cell volume and monitors cell viability (Crowe, 1995; Inglefield, 1998; Inglefield, 1999). • Ethidium Homodimer-1, EH-1 (6 μM; Exλ 525, Emλ 590) enters cells upon membrane damage and thus labels dead or dying cells (Bickler and Hansen 1998; Pinheiro et al. 2006). Fluorescence and Confocal Microscopy […]\nPresence of intracellular ROS is measured by detection of superoxide anion using Dihydroethidium (DHE). […] Cells are washed in PBS and then visualized using fluorescent microscopy or quantified using spectrophotometry."}, "[5]": {"conditions": "in vivo; cited from earlier work"}}, "note": "“And” between values parts separate entries of the source, which are not always exact repeats. Equal values may be shown once. “Also recorded” adds a separate entry of the source. Read-outs that look alike come from different tables or passages of the source.", "data": [{"compound": "C[C@H](O)CCO", "note": "[BD, R,S-1,3-butanediol, reference compound]", "values": [{"measurement": "acidosis", "setting": "[1]; acute administration", "value": "mild nonpathological acidosis"}, {"measurement": "mean decrease of blood pH compared to control (pH~7.5)", "setting": "[1]; after about 30 minutes", "value": 0.05}, {"measurement": "mean decrease of blood pH compared to control (pH~7.5)", "setting": "[1]; after about one hour", "value": 0.1}, {"measurement": "blood pH after administration (FIG. 20)", "setting": "[1]", "value": 7.35}, {"measurement": "blood BHB level", "setting": "[2]; rats, 10 g/kg oral gavage", "value": "> 5", "unit": "mM"}, {"measurement": "blood BHB level versus control (words)", "setting": "[2]; rats", "value": "significant increase in BHB"}, {"measurement": "effect on blood glucose", "setting": "[2]; rats", "value": "no significant effect on blood glucose levels"}, {"measurement": "blood AcAc / acetone level", "setting": "[2]; rats", "value": "only modest elevation in AcAc; also recorded: remained low or undetectable"}, {"measurement": "blood BHB level versus control (words)", "setting": "[2]; rats, listed as 1,3-butanediol", "value": "elevated blood levels of β-hydroxybutyrate"}]}, {"compound": "CC(=O)CC(=O)OCCC(C)OC(=O)CC(C)=O", "note": "(stereo not shown) [BD-AcAc2, R,S-1,3-butanediol acetoacetate diester]", "values": [{"measurement": "mean decrease of blood pH compared to control (pH~7.5)", "setting": "[1]; after about 30 minutes", "value": 0.05}, {"measurement": "mean decrease of blood pH compared to control (pH~7.5)", "setting": "[1]; after about one hour", "value": 0.1}, {"measurement": "blood pO2", "setting": "[1]; during the 4 hour experiment", "value": "> 120", "unit": "mmHg"}, {"measurement": "blood pH after administration (FIG. 20)", "setting": "[1]", "value": 7.35}, {"measurement": "increase in blood pO2 levels", "setting": "[1]; significant and sustained", "value": "approximately 30%"}, {"measurement": "increase in latency to seizure (LS) compared to control (water)", "setting": "[3]", "value": "> 570", "unit": "%"}, {"measurement": "increase in latency to seizure (LS) compared to control (water)", "setting": "[3]; listed as KE", "value": "574±115% and 574±116%"}, {"measurement": "increase in latency to seizure (LS) compared to control (water)", "setting": "[3]; listed as dKE", "value": 570, "unit": "%"}, {"measurement": "total ketones", "setting": "[2]; about 30 minutes after gavage", "value": "> 5", "unit": "mM"}, {"measurement": "total blood ketones (BHB, AcAc and acetone)", "setting": "[2]; after 1 hr, average", "value": "> 6", "unit": "mM"}, {"measurement": "blood AcAc level", "setting": "[2]; rats, 10 g/kg oral gavage", "value": "> 3", "unit": "mM"}, {"measurement": "blood BHB level", "setting": "[2]; rats, 10 g/kg oral gavage", "value": "> 3", "unit": "mM"}, {"measurement": "blood BHB level versus control (words)", "setting": "[2]; rats", "value": "significant increase in BHB and AcAc at 30 minutes"}, {"measurement": "effect on blood glucose", "setting": "[2]; rats", "value": "does not elevate blood glucose"}, {"measurement": "effect on blood glucose", "setting": "[2]; rats, listed as KE", "value": "no significant effect on blood glucose levels"}, {"measurement": "blood AcAc / acetone level", "setting": "[2]; rats, listed as KE", "value": "significantly higher at 60 minutes; also recorded: increased significantly"}, {"measurement": "sustained elevation of total ketones", "setting": "[2]; single oral administration, for over 4 hrs", "value": "> 6", "unit": "mM"}, {"measurement": "duration of elevation of blood ketones", "setting": "[2]", "value": "over 4 h"}, {"measurement": "duration of elevation of blood ketones", "setting": "[2]; listed as KE", "value": "4 h and > 4 h"}, {"measurement": "blood acetone level", "setting": "[2]; within about 60 minutes after administration", "value": "~0.7", "unit": "mM"}]}, {"compound": "CC(=O)CC(=O)OCCC(C)O", "note": "(stereo not shown) [BD-AcAc, R,S-1,3-butanediol acetoacetate monoester]", "values": [{"measurement": "latency to seizure, single rat EEG (FIG. 7)", "setting": "[3]; HBO2 at 60 PSI (5 ATA O2), same rat without ketone ester about 8 minutes", "value": 110, "unit": "min"}, {"measurement": "increase in latency to seizure (LS) compared to control (water)", "setting": "[3]", "value": 285, "unit": "%"}]}, {"compound": "Cc1ccccc1NC(=N)Nc1ccccc1C", "note": "[DTG, 1,3,-di-o-tolylguanidine]", "values": [{"measurement": "effect on superoxide production under hyperoxia", "setting": "[4]", "value": "prevented the hyperoxia-induced increase in superoxide production"}]}, {"compound": "(R)-1,3-butanediol ester [BHB ester, reference compound]", "values": [{"measurement": "blood BHB level versus control (words)", "setting": "[2]; rats", "value": "elevated blood levels of β-hydroxybutyrate"}]}, {"compound": "MCT oil", "values": [{"measurement": "level of ketones produced by supplementation", "setting": "[5]", "value": "< 500", "unit": "µM"}]}]}
